One experiment has as its system TOV21G. The experiment is described as follows: Cell proliferation (CyQUANT) TOV21G. As to conditions: Homo sapiens, 168 h, 7 days, read-out: Anti-proliferation assay: IC50 (nM) [Cell Line: TOV21G]. Format: cell-based. In a few lines:
(§1)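 Cells were seeded at 2500, 1000 or 3000 cells/well, cultured overnight, then exposed to 3-fold compound dilutions for 7 days (final DMSO at most 0.01%). CyQUANT fluorescence was read at Ex/Em 480/520 nm; % inhibition computed relative to same-plate DMSO wells.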

A further experiment addresses GSK3β (Homo sapiens, UniProt P49841). The experiment is described as follows: In vitro kinase TR-FRET assay GSK3β. Format: biochemical. The following applies: enzyme 0.6 nM, ATP 7.6 μM. In a few lines: (§2)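 Enzymes at 3 nM (CDK2/CycA2), 0.6 nM (CDK2/CycE1), 0.3 nM (CDK1/cyclinB), 0.6 nM (GSK3β) with ATP at 27, 82, 56, 7.6 μM respectively, 50 nM ULight-4E-BP1 peptide, HEPES pH7.5; 10-point 3-fold dilutions. 1 h reaction at room temperature; Eu-anti-phospho-4E-BP1 TR-FRET (665/615 nm) read; IC50 from dose-response curves.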
For orientation: TR-FRET usually uses a lanthanide donor and a delayed reading to cut background.

In another experiment the test system is OVCAR3. The experiment is described as follows: Cell proliferation (CyQUANT) OVCAR3. It counts as cell-based. As to conditions: Homo sapiens, OVCAR-3, 168 h, OVCAR3, 7 days, read-out: Anti-proliferation assay: IC50 (nM) [Cell Line: OVCAR3]. In outline: as §1
Another experiment deals with CDK2/CycE1 (Homo sapiens, UniProt P24941). The experiment is described as follows: In vitro kinase TR-FRET assay CDK2/CycE1. The following applies: enzyme 0.6 nM, ATP 82 μM, read-out: CDK2 cyclinE1 activity assay: IC50. Format: biochemical. In a few lines: as §2
The next experiment has as its target CDK1/cyclinB (Homo sapiens, UniProt P06493). The experiment is described as follows: In vitro kinase TR-FRET assay CDK1/cyclinB. It counts as biochemical. The following applies: enzyme 0.3 nM, ATP 56 μM. In outline: as §2
The target of the next experiment is CDK2/CycA2 (Homo sapiens, UniProt P24941). The experiment is described as follows: In vitro kinase TR-FRET assay CDK2/CycA2. Format: biochemical. The following applies: enzyme 3 nM, ATP 27 μM, read-out: CDK2 cyclinA2 activity assay: IC50. In a few lines:
as §2

The values that follow come from patent publication US20240246950A1, “Anilino-Pyrazole Derivatives, Compositions and Methods Thereof” (Ensem Therapeutics, priority 2022, published 2024).

Structures are written as SMILES. Some results are limits rather than exact numbers.

Sequence of CDK1/cyclinB (P06493 whole entry): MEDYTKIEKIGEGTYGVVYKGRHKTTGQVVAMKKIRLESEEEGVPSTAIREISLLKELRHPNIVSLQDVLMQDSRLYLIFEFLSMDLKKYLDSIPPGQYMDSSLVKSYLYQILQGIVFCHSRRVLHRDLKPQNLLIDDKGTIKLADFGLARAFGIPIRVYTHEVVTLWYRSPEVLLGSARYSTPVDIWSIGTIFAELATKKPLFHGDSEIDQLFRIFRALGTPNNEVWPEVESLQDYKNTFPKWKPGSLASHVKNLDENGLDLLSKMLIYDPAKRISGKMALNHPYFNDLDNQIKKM
Sequence of CDK1/cyclinB (P14635 whole entry partner): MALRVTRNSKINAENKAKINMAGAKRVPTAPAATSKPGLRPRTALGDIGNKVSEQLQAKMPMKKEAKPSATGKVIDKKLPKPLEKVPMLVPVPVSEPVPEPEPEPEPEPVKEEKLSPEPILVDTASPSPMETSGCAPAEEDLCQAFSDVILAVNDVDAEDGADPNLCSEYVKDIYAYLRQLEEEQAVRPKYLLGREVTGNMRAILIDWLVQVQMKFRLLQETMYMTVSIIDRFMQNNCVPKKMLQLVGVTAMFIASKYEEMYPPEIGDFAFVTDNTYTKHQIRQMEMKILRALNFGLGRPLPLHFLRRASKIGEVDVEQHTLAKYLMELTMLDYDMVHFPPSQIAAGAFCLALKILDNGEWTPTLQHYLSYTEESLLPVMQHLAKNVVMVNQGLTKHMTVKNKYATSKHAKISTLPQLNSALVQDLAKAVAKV
Sequence of GSK3β (P49841 whole entry, species assumed): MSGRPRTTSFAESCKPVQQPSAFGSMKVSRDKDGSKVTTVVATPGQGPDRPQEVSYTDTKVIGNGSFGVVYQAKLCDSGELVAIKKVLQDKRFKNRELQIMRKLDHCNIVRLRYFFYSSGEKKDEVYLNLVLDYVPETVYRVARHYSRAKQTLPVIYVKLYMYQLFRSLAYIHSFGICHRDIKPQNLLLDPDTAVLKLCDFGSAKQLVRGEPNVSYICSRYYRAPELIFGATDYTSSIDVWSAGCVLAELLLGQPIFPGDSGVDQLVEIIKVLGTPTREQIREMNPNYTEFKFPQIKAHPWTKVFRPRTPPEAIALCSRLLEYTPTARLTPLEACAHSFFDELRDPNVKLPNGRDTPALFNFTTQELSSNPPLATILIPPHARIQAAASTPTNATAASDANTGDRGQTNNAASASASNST

Take `CC(C)NC(=O)O[C@@H]1CC[C@H](c2cc(Nc3ccc4c(n3)CCS4(=O)=O)n[nH]2)C1` [Example 55, (1R,3S)-3-(3-((1,1-dioxido-2,3-dihydrothieno[3,2-b]pyridin-5-yl)amino)-1H-pyrazol-5-yl)cyclopentyl isopropylcarbamate]: the IC50 was no less than 1000 nM in the experiment with TOV21G; 50 to 500 nM on GSK3β; no more than 500 nM in the experiment on OVCAR3; less than 50 nM at CDK2/CycE1; 50 to 500 nM against CDK1/cyclinB; less than 50 nM at CDK2/CycA2.

On to `CC(C)NC(=O)O[C@@H]1CC[C@H](c2cc(Nc3cccc4c3CCN(C)S4(=O)=O)[nH]n2)C1` [Example 56, (1R,3S)-3-{5-[(2-methyl-1,1-dioxo-3,4-dihydro-2H-1λ6-benzo[2,1-e][1,2]thiazin-5-yl)amino]-1H-pyrazol-3-yl}cyclopentyl (prop-2-ylamino)methanoate], for which the IC50 in the experiment on TOV21G was no less than 1000 nM; against GSK3β, 50 to 500 nM; in the experiment on OVCAR3, no more than 500 nM; at CDK2/CycE1, less than 50 nM; on CDK1/cyclinB, 50 to 500 nM; on CDK2/CycA2 it was less than 50 nM.

Turning to `CC(C)NC(=O)O[C@@H]1CC[C@H](c2cc(Nc3nccc4c3CCS4(=O)=O)n[nH]2)C1` [Example 57, (1R,3S)-3-{5-[(1,1-dioxo-2,3-dihydro-1λ^6-thieno[3,2-c]pyridin-4-yl)amino]-2H-pyrazol-3-yl}cyclopentyl (prop-2-ylamino)methanoate], the IC50 in the experiment with TOV21G was 500 to 1000 nM; against GSK3β it was 50 to 500 nM; in the experiment with OVCAR3, no more than 500 nM; on CDK2/CycE1 it was less than 50 nM; on CDK1/cyclinB it was 50 to 500 nM; at CDK2/CycA2, less than 50 nM.

On to `CC(C)NC(=O)O[C@@H]1CC[C@H](c2cc(Nc3ccc(Cl)c4c3CCCS4(=O)=O)n[nH]2)C1` [Example 58, (1R,3S)-3-(3-((8-chloro-1,1-dioxidothiochroman-5-yl)amino)-1H-pyrazol-5-yl)cyclopentyl isopropylcarbamate], for which the IC50 in the experiment on TOV21G was no less than 1000 nM; against GSK3β it was 500 to 1000 nM; in the experiment with OVCAR3, no more than 500 nM; on CDK2/CycE1 it was less than 50 nM; against CDK1/cyclinB, 50 to 500 nM; on CDK2/CycA2, less than 50 nM.

As to `CC(C)NC(=O)O[C@@H]1CC[C@H](c2cc(Nc3cccc4c3CCCS4(=O)=O)n[nH]2)C1` [Example 59, (1R,3S)-3-(3-((1,1-dioxidothiochroman-5-yl)amino)-1H-pyrazol-5-yl)cyclopentyl isopropylcarbamate], the IC50 in the experiment on TOV21G was 500 to 1000 nM; against GSK3β, 500 to 1000 nM; in the experiment on OVCAR3 it was no more than 500 nM; at CDK2/CycE1 it was less than 50 nM; against CDK1/cyclinB, 50 to 500 nM; on CDK2/CycA2, less than 50 nM.

In the case of `CC(C)NC(=O)O[C@@H]1CC[C@H](c2cc(Nc3ccc4c(c3F)CCS4(=O)=O)n[nH]2)C1` [Example 60, (1R,3S)-3-(3-((4-fluoro-1,1-dioxido-2,3-dihydrobenzo[b]thiophen-5-yl)amino)-1H-pyrazol-5-yl)cyclopentyl isopropylcarbamate], the IC50 with TOV21G was no less than 1000 nM; on GSK3β, greater than 1000 nM; with OVCAR3 it was no more than 500 nM; on CDK2/CycE1, less than 50 nM; against CDK1/cyclinB, 50 to 500 nM; at CDK2/CycA2, less than 50 nM.

With `CC(C)NC(=O)O[C@@H]1CC[C@H](c2cc(Nc3cccc4c3CCNS4(=O)=O)n[nH]2)C1` [Example 61, (1R,3S)-3-(3-((1,1-dioxido-3,4-dihydro-2H-benzo[e][1,2]thiazin-5-yl)amino)-1H-pyrazol-5-yl)cyclopentyl isopropylcarbamate], the IC50 was no more than 500 nM in the experiment with TOV21G; 500 to 1000 nM at GSK3β; no more than 500 nM with OVCAR3; less than 50 nM at CDK2/CycE1; less than 50 nM on CDK1/cyclinB; less than 50 nM at CDK2/CycA2.

As to `CC(C)NC(=O)O[C@@H]1CC[C@H](c2cc(Nc3cccc4c3CS(=O)(=O)CC4O)[nH]n2)C1` (stereo partly drawn) [Example 62, (1R,3S)-3-(5-((4-hydroxy-2,2-dioxidoisothiochroman-8-yl)amino)-1H-pyrazol-3-yl)cyclopentyl isopropylcarbamate], the IC50 with TOV21G was no less than 1000 nM; against GSK3β it was greater than 1000 nM; with OVCAR3, no more than 500 nM; at CDK2/CycE1, less than 50 nM; against CDK1/cyclinB it was 50 to 500 nM; at CDK2/CycA2, less than 50 nM.

Regarding `CC(C)NC(=O)O[C@@H]1CC[C@H](c2cc(Nc3cccc4c3CS(=O)(=O)CC4)n[nH]2)C1` [Example 63, (1R,3S)-3-(3-((2,2-dioxidoisothiochroman-8-yl)amino)-1H-pyrazol-5-yl)cyclopentyl isopropylcarbamate], the IC50 in the experiment with TOV21G is no less than 1000 nM; on GSK3β, greater than 1000 nM; with OVCAR3, no more than 500 nM; on CDK2/CycE1, less than 50 nM; against CDK1/cyclinB it was 50 to 500 nM; on CDK2/CycA2, less than 50 nM.

As for `CC(C)NC(=O)O[C@@H]1CC[C@H](c2cc(Nc3ccc(Cl)c4c3CCS4(=O)=O)n[nH]2)C1` [Example 64, (1R,3S)-3-(3-((7-chloro-1,1-dioxido-2,3-dihydrobenzo[b]thiophen-4-yl)amino)-1H-pyrazol-5-yl)cyclopentyl isopropylcarbamate], the IC50 with TOV21G was no less than 1000 nM; against GSK3β, 50 to 500 nM; with OVCAR3, no more than 500 nM; on CDK2/CycE1, less than 50 nM; against CDK1/cyclinB, 50 to 500 nM; at CDK2/CycA2 it was less than 50 nM.

Turning to `Cc1ccc(Nc2cc([C@H]3CC[C@@H](OC(=O)NC(C)C)C3)[nH]n2)c2c1S(=O)(=O)CC2` [Example 65, (1R,3S)-3-(3-((7-methyl-1,1-dioxido-2,3-dihydrobenzo[b]thiophen-4-yl)amino)-1H-pyrazol-5-yl)cyclopentyl isopropylcarbamate], the IC50 is 500 to 1000 nM in the experiment on TOV21G; 50 to 500 nM on GSK3β; no more than 500 nM with OVCAR3; less than 50 nM at CDK2/CycE1; 50 to 500 nM on CDK1/cyclinB; less than 50 nM on CDK2/CycA2.

As to `CC(C)NC(=O)O[C@@H]1CC[C@H](c2cc(Nc3ccc(F)c4c3CNS4(=O)=O)[nH]n2)C1` [Example 66, (1R,3S)-3-(5-((7-fluoro-1,1-dioxido-2,3-dihydrobenzo[d]isothiazol-4-yl)amino)-1H-pyrazol-3-yl)cyclopentyl isopropylcarbamate], the IC50 in the experiment on TOV21G was no less than 1000 nM; against GSK3β it was 50 to 500 nM; in the experiment on OVCAR3 it was no more than 500 nM; on CDK2/CycE1 it was less than 50 nM; on CDK1/cyclinB, less than 50 nM; at CDK2/CycA2 it was less than 50 nM.

With `CC(C)NC(=O)O[C@@H]1CC[C@H](c2cc(Nc3ccc(F)c4c3CN(C)S4(=O)=O)n[nH]2)C1` [Example 67, (1R,3S)-3-{5-[(7-fluoro-2-methyl-1,1-dioxo-2,3-dihydro-1λ^6-benzo[2,1-d][1,2]thiazol-4-yl)amino]-2H-pyrazol-3-yl}cyclopentyl (prop-2-ylamino)methanoate], the IC50 in the experiment on TOV21G was no less than 1000 nM; against GSK3β it was greater than 1000 nM; in the experiment on OVCAR3, no more than 500 nM; at CDK2/CycE1, less than 50 nM; against CDK1/cyclinB, 50 to 500 nM; on CDK2/CycA2, less than 50 nM.

As for `CC(C)(C)NC(=O)O[C@@H]1CC[C@H](c2cc(Nc3nccc4c3CCS4(=O)=O)n[nH]2)C1` [Example 68, (1R,3S)-3-(3-((1,1-dioxido-2,3-dihydrothieno[3,2-c]pyridin-4-yl)amino)-1H-pyrazol-5-yl)cyclopentyl tert-butylcarbamate], the IC50 in the experiment on TOV21G is no more than 500 nM; against GSK3β, 50 to 500 nM; with OVCAR3, no more than 500 nM; on CDK2/CycE1 it was less than 50 nM; against CDK1/cyclinB, less than 50 nM; at CDK2/CycA2, less than 50 nM.

`CC(C)NC(=O)O[C@H]1CC[C@@H](c2cc(Nc3nccc4c3CCS4(=O)=O)n[nH]2)CC1` [Example 69, (1s,4s)-4-{5-[(1,1-dioxo-2,3-dihydro-1λ^6-thieno[3,2-c]pyridin-4-yl)amino]-1H-pyrazol-3-yl}cyclohexyl (prop-2-ylamino)methanoate]: the IC50 in the experiment on TOV21G was no less than 1000 nM; on GSK3β, greater than 1000 nM; in the experiment on OVCAR3, 500 to 1000 nM; on CDK2/CycE1, less than 50 nM; on CDK1/cyclinB it was 50 to 500 nM; on CDK2/CycA2, less than 50 nM.

With `CC(C)NC(=O)O[C@H]1C[C@@H](c2cc(Nc3nccc4c3CCS4(=O)=O)n[nH]2)C1` [Example 70, (1s,3s)-3-(3-((1,1-dioxido-2,3-dihydrothieno[3,2-c]pyridin-4-yl)amino)-1H-pyrazol-5-yl)cyclobutyl isopropylcarbamate], the IC50 in the experiment with TOV21G is no more than 500 nM; on GSK3β, less than 50 nM; in the experiment with OVCAR3, no more than 500 nM; on CDK2/CycE1, less than 50 nM; on CDK1/cyclinB, less than 50 nM; on CDK2/CycA2, less than 50 nM.
